Test results: ChEMBL document CHEMBL3879915, “Methods of inhibiting PRMT5” (2014)

What was measured:
[1] = target: PRMT5/MEP50 complex (Homo sapiens, UniProt O14744); test: Inhibition of recombinant human fetal brain FLAG-tagged PRMT5/full length human testis 6His-tagged MEP50 expressed in baculovirus infected insect Sf9 cells using human histone H4 (1 to 15 residues) as substrate preincubated for 30 mins followed by [3H]-SAM addition
[2] = target: Protein arginine N-methyltransferase 5 (Homo sapiens, UniProt O14744); test: Inhibition of PRMT5 in human Z138 cells assessed as decrease in di-methyl arginine levels after 96 hrs by Western blot method; format: cell-based
Protein arginine N-methyltransferase 5, sequence (O14744 whole entry): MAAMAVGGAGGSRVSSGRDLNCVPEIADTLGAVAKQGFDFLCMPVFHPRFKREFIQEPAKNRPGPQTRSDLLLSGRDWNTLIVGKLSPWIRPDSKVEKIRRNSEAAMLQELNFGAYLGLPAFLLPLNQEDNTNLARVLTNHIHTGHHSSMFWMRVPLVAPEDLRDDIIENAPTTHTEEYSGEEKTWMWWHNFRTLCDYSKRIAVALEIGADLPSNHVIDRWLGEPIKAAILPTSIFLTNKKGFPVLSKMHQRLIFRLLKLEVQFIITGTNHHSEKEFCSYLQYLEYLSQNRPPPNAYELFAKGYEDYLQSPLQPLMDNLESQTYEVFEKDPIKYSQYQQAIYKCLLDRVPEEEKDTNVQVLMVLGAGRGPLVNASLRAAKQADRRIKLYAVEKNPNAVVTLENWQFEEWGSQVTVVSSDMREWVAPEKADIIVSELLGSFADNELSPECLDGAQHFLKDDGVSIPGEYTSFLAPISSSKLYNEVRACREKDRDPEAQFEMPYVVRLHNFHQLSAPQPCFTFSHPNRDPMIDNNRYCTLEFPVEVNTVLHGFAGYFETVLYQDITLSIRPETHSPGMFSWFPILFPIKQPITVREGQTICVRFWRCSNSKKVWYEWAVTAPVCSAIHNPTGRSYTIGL

[3] = Antiproliferative activity against human Z138 cells assessed as inhibition of cell viability after 5 days by Cell-Titer Glo assay; format: functional, cell-based; details: Z-138, 120 h

PRMT5/MEP50 complex, sequence (O14744 whole entry, the tested form may be a part): as the sequence (O14744 whole entry) above
PRMT5/MEP50 complex, sequence (Q9BQA1 whole entry, further chain, the tested form may be a part): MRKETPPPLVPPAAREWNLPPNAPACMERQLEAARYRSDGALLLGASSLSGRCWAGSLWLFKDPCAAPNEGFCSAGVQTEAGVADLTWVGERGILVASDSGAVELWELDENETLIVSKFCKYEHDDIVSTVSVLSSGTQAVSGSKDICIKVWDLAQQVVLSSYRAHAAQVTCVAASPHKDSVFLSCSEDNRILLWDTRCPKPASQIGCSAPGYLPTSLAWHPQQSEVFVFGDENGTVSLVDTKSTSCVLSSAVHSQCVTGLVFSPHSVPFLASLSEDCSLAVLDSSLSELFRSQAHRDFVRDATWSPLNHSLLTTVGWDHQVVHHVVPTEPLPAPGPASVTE

| IC50 [1] | EC50 [2] | SMILES | EC50 [3] |
| --- | --- | --- | --- |
| < 0.1 µM | < 0.1 µM | O=C(NCC(O)CN1CCc2ccccc2C1)c1cccc(-c2cccnc2)c1 (centres undefined) | 1 to 10 µM |
| < 0.1 µM | 0.101 to 1 µM | O=C(COc1cccc2ccc(N3CCOCC3)nc12)NCC(O)CN1CCc2ccccc2C1 (centres undefined) | 10 to 50 µM |
| < 0.1 µM | 0.101 to 1 µM | CN1CCN(c2cccc(C(=O)NCC(O)CN3CCc4ccccc4C3)c2)CC1 (centres undefined) | 10 to 50 µM |
| 0.101 to 1 µM | 1 to 10 µM | O=C(c1ccc(Cn2nccc2-c2ccc(OCC(O)CN3CCc4ccccc4C3)cc2)cc1)N1CCCC1 (centres undefined) | 10 to 40 µM |
| < 0.1 µM | < 0.1 µM | Cn1nccc1-c1cccc(C(=O)NCC(O)CN2CCc3ccccc3C2)c1 (centres undefined) | 1 to 10 µM |
| 0.101 to 1 µM | 0.101 to 1 µM | O=C(Cn1cnc2ccc(-c3cccc(OCC(O)CN4CCc5ccccc5C4)c3)cc21)N1CCCCC1 (centres undefined) | 10 to 40 µM |
| < 0.1 µM | 0.101 to 1 µM | O=C(COc1ccccc1C1CCCCC1)NCC(O)CN1CCc2ccccc2C1 (centres undefined) | 1 to 10 µM |
| < 0.1 µM | 0.101 to 1 µM | Cn1cc2ccc(-c3ccnc(NCC(O)CN4CCc5ccccc5C4)c3)cc2n1 (centres undefined) | 1 to 10 µM |
| < 0.1 µM | 0.101 to 1 µM | CNC(=O)Cn1ccc2cnc(-c3ccnc(NCC(O)CN4CCc5ccccc5C4)c3)nc21 (centres undefined) | 1 to 10 µM |
| < 0.1 µM | < 0.1 µM | O=C(Cn1ccc2cnc(-c3ccnc(NCC(O)CN4CCc5ccccc5C4)c3)nc21)N1CCCCC1 (centres undefined) | 0.101 to 1 µM |
| 0.101 to 1 µM | 1 to 10 µM | OC(CNc1cccc(CNC2CCCC2)c1)CN1CCc2ccccc2C1 (centres undefined) | > 20 µM |
| 0.101 to 1 µM | 0.101 to 1 µM | Cn1ncc2ccc(-c3cc(NCC(O)CN4CCc5ccccc5C4)ncn3)cc21 (centres undefined) | > 20 µM |
| 0.101 to 1 µM | 1 to 10 µM | Cn1cnc2ccc(-c3cccc(NCC(O)CN4CCc5ccccc5C4)n3)cc21 (centres undefined) | > 20 µM |
| 0.101 to 1 µM | 0.101 to 1 µM | Cn1ccc2ccc(-c3cc(NCC(O)CN4CCc5ccccc5C4)ncn3)cc21 (centres undefined) | 10 to 40 µM |
| 0.101 to 1 µM | 0.101 to 1 µM | CC(=O)N1CCC(n2ccc3cnc(-c4cccc(OCC(O)CN5CCc6ccccc6C5)c4)nc32)CC1 (centres undefined) | 1 to 10 µM |
| < 0.1 µM | 0.101 to 1 µM | O=C(NCC(O)CN1CCc2ccccc2C1)c1cccc(CN2CCNCC2)c1 (centres undefined) | 1 to 10 µM |
| < 0.1 µM | < 0.1 µM | Cn1cnc2ccc(-c3cncc(NCC(O)CN4CCc5ccccc5C4)c3)cc21 (centres undefined) | 1 to 10 µM |
| 0.101 to 1 µM | 0.101 to 1 µM | O=C(COc1cccc(C(=O)N2CCOCC2)c1)NCC(O)CN1CCc2ccccc2C1 (centres undefined) | 10 to 50 µM |
| < 0.1 µM | < 0.1 µM | O=C(NCC(O)CN1CCc2ccccc2C1)c1cccc(-c2ccccn2)c1 (centres undefined) | 1 to 10 µM |
| < 0.1 µM | < 0.1 µM | CC(=O)N1CCC(n2ccc3cnc(-c4ccnc(NCC(O)CN5CCc6ccccc6C5)c4)nc32)CC1 (centres undefined) | 0.101 to 1 µM |
| 0.101 to 1 µM | 1 to 10 µM | Cn1cnc2ccc(-c3cc(NCC(O)CN4CCc5ccccc5C4)ccn3)cc21 (centres undefined) | 10 to 40 µM |

More lines, now with the values behind:

| SMILES | IC50 [1] | EC50 [2] | EC50 [3] |
| --- | --- | --- | --- |
| Cn1ccc2ccc(-c3cccc(OCC(O)CN4CCc5ccccc5C4)c3)nc21 (centres undefined) | < 0.1 µM | 0.101 to 1 µM | > 20 µM |
| O=C(COc1cccc2cccnc12)NCC(O)CN1Cc2ccccc2C1 (centres undefined) | 0.101 to 1 µM | 1 to 10 µM | > 20 µM |
| CC(C)(Oc1cccc2cccnc12)C(=O)NCC(O)CN1CCc2ccccc2C1 (centres undefined) | < 0.1 µM | 0.101 to 1 µM | 1 to 10 µM |
| CNC(=O)c1ccccc1OCC(=O)NCC(O)CN1CCc2ccccc2C1 (centres undefined) | 0.101 to 1 µM | 0.101 to 1 µM | > 20 µM |
| CN1CCC(n2ncc3ccc(OCC(=O)NCC(O)CN4CCc5ccccc5C4)cc32)CC1 (centres undefined) | < 0.1 µM | 0.101 to 1 µM | > 20 µM |
| OC(COc1cccc(-c2ccc3ncoc3c2)c1)CN1CCc2ccccc2C1 (centres undefined) | 0.101 to 1 µM | 1 to 10 µM | 10 to 40 µM |
| NS(=O)(=O)c1ccccc1OCC(=O)NCC(O)CN1CCc2ccccc2C1 (centres undefined) | < 0.1 µM | 0.101 to 1 µM | 1 to 10 µM |
| CC1c2ccccc2CCN1CC(O)COc1cccc(-c2ccc3ncn(C)c3c2)c1 (centres undefined) | 0.101 to 1 µM | > 20 µM | 1 to 10 µM |
| O=C1Cc2ccccc2N1CC(O)CN1CCc2ccccc2C1 (centres undefined) | 0.101 to 1 µM | 0.101 to 1 µM | > 20 µM |
| O=C(COc1cccc2c1OCC(=O)N2)NCC(O)CN1CCc2ccccc2C1 (centres undefined) | 1 to 10 µM | 1 to 10 µM | > 20 µM |
| Cc1ccncc1-c1cccc(OCC(O)CN2CCc3ccccc3C2)c1 (centres undefined) | 0.101 to 10 µM | 0.101 to 1 µM | 10 to 40 µM |
| Cn1cc2c(OCC(=O)NCC(O)CN3CCc4ccccc4C3)cccc2n1 (centres undefined) | 0.101 to 1 µM | 1 to 10 µM | > 20 µM |
| O=C(COc1ccccc1N1CCOCC1)NC[C@H](O)CN1CCc2ccccc2C1 | < 0.1 µM | < 0.1 µM | 1 to 10 µM |
| O=C1CN(c2ccc(Cl)cc2)CCN1CC(O)CN1CCc2ccccc2C1 (centres undefined) | < 0.1 µM | 0.101 to 1 µM | 10 to 50 µM |
| COc1ccc(Cn2cnc3ccc(-c4cccc(OCC(O)CN5CCc6ccccc6C5)c4)cc32)cc1 (centres undefined) | 0.101 to 1 µM | 1 to 10 µM | 10 to 40 µM |
| CN(C)c1ccc2cccc(OCC(=O)NC[C@H](O)CN3CCc4ccccc4C3)c2n1 | 0.101 to 1 µM | 1 to 10 µM | > 20 µM |
| O=C(Nc1cccc(OCC(O)CN2CCc3ccccc3C2)c1)c1cncnc1 (centres undefined) | 1 to 10 µM | 1 to 10 µM | > 20 µM |
| OC(COc1cccc(-c2ccc3c(c2)OCO3)c1)CN1CCc2ccccc2C1 (centres undefined) | 0.101 to 1 µM | 10 to 40 µM | 10 to 40 µM |
| CN(C)C(=O)c1ccccc1OCC(=O)NCC(O)CN1CCc2ccccc2C1 (centres undefined) | 0.101 to 1 µM | 0.101 to 1 µM | 10 to 50 µM |
| CN(C)c1cccc(OCC(=O)NCC(O)CN2CCc3ccccc3C2)c1 (centres undefined) | < 0.1 µM | 0.101 to 1 µM | 1 to 10 µM |
| CS(=O)(=O)Nc1ccc(OCC(=O)NCC(O)CN2CCc3ccccc3C2)cc1 (centres undefined) | 0.101 to 1 µM | 0.101 to 1 µM | > 20 µM |
| NC(=O)c1ccc(-c2cccc(OCC(O)CN3CCc4ccccc4C3)c2)cc1 (centres undefined) | 0.101 to 1 µM | 1 to 10 µM | > 20 µM |
| CN(C)c1ccc(OCC(=O)NCC(O)CN2CCc3ccccc3C2)cc1 (centres undefined) | 0.101 to 1 µM | 0.101 to 1 µM | 10 to 50 µM |
| Cc1cccc(OCC(=O)NCC(O)CN2CCc3ccccc3C2)c1 (centres undefined) | < 0.1 µM | 0.101 to 1 µM | 1 to 10 µM |

| SMILES | IC50 [1] | EC50 [2] | EC50 [3] |
| --- | --- | --- | --- |
| CNC(=O)c1cccc(-c2cccc(OCC(O)CN3CCc4ccccc4C3)c2)c1 (centres undefined) | 0.101 to 1 µM | 1 to 10 µM | > 20 µM |
| CN(CC(O)CN1CCc2ccccc2C1)c1cccc(CNC2CCOCC2)c1 (centres undefined) | < 0.1 µM | 1 to 10 µM | > 20 µM |
| OC(COc1cccc(-c2ccccc2C(F)(F)F)c1)CN1CCc2ccccc2C1 (centres undefined) | 0.101 to 1 µM | 1 to 10 µM | > 20 µM |
| CN(C)S(=O)(=O)c1ccccc1OCC(=O)NCC(O)CN1CCc2ccccc2C1 (centres undefined) | < 0.1 µM | < 0.1 µM | 0.101 to 1 µM |
| OC(COc1cccc(-c2ccc3cn[nH]c3c2)c1)CN1CCc2ccccc2C1 (centres undefined) | 0.101 to 1 µM | 1 to 10 µM | 10 to 40 µM |
| O=C(NCC(O)CN1CCc2ccccc2C1)c1cccc(-c2cc[nH]n2)c1 (centres undefined) | < 0.1 µM | 0.101 to 1 µM | 1 to 10 µM |
| CNCCOc1cccc(C(=O)NCC(O)CN2CCc3ccccc3C2)c1 (centres undefined) | 0.101 to 1 µM | 1 to 10 µM | > 20 µM |
| COc1ccc2cccc(OCC(=O)NC[C@H](O)CN3CCc4ccccc4C3)c2n1 | 0.101 to 1 µM | 0.101 to 1 µM | 1 to 10 µM |
| O=C(COc1ccccc1S(=O)(=O)N1CCC(O)C1)NCC(O)CN1CCc2ccccc2C1 (centres undefined) | < 0.1 µM | < 0.1 µM | 0.101 to 1 µM |
| CC(C)Oc1ccc(F)c(-c2cccc(OCC(O)CN3CCc4ccccc4C3)c2)c1 (centres undefined) | 0.101 to 1 µM | 1 to 10 µM | > 20 µM |
| COc1ccc(-c2cccc(OCC(O)CN3CCc4ccccc4C3)c2)cc1 (centres undefined) | 0.101 to 1 µM | 1 to 10 µM | 10 to 40 µM |
| O=C(NCC(O)CN1CCc2ccccc2C1)c1ccc(-c2ccccn2)cc1 (centres undefined) | < 0.1 µM | < 0.1 µM | 0.101 to 1 µM |
| O=C(Nc1cccc(OCC(O)CN2CCc3ccccc3C2)c1)c1cnccn1 (centres undefined) | 0.101 to 1 µM | 1 to 10 µM | > 20 µM |
| CNC(=O)Cn1cnc2ccc(-c3cccc(OCC(O)CN4CCc5ccccc5C4)c3)cc21 (centres undefined) | 0.101 to 1 µM | 1 to 10 µM | 1 to 10 µM |
| CS(=O)(=O)Nc1ccc(C(=O)NCC(O)CN2CCc3ccccc3C2)cc1 (centres undefined) | 0.101 to 1 µM | 0.101 to 1 µM | 10 to 50 µM |
| O=C(COc1ccccc1-c1cc[nH]n1)NC[C@H](O)CN1CCc2ccccc2C1 | < 0.1 µM | 0.101 to 1 µM | > 20 µM |
| O=c1[nH]c2ccc(-c3cccc(OCC(O)CN4CCc5ccccc5C4)c3)cc2[nH]1 (centres undefined) | 0.101 to 1 µM | 0.101 to 20 µM | 10 to 20 µM |
| O=C(COc1ccccc1N1CCOCC1)NCC(O)CN1CCc2ccccc2C1 (centres undefined) | < 0.1 µM | 0.101 to 1 µM | 1 to 10 µM |
| N#Cc1cccc(OCC(=O)NCC(O)CN2CCc3ccccc3C2)c1 (centres undefined) | 0.101 to 1 µM | 0.101 to 1 µM | 10 to 50 µM |
| NS(=O)(=O)c1cccc(C(=O)NCC(O)CN2CCc3ccccc3C2)c1 (centres undefined) | 0.101 to 1 µM | 0.101 to 1 µM | > 20 µM |
| Cn1cnc2ccc(-c3cccc(NCC(O)CN4CCc5ccccc5C4)c3)cc21 (centres undefined) | < 0.1 µM | 0.101 to 1 µM | 1 to 10 µM |
| Cn1cnc2cc(OCC(=O)NCC(O)CN3CCc4ccccc4C3)ccc21 (centres undefined) | 0.101 to 1 µM | 0.101 to 1 µM | 10 to 50 µM |
| O=C(COc1ccc2c(cnn2C2CCNC2)c1)NCC(O)CN1CCc2ccccc2C1 (centres undefined) | < 0.1 µM | 0.101 to 1 µM | 10 to 50 µM |
